Source: US20040176431A1, “Antiproliferative 2-(sulfo-phenyl)-aminothiazole derivatives and pharmaceutical compositions, and methods for their use” (Pfizer, Inc., priority 2003, published 2004)

Assays:
[1] = molecular target: T1, CDK2/cyclin A (Homo sapiens, UniProt P24941); experiment: Inhibition of CDK2/Cyclin A retinoblastoma kinase activity; assay type: biochemical; settings: apparent Ki, Rb fragment substrate
T1 construct: made in house; host or cells: CDK2: insect cells (baculovirus); cyclin A: E. coli, then limited proteolysis
Protocol: Cyclin-dependent kinase activity was measured by quantifying the enzyme-catalyzed, time-dependent incorporation of radioactive phosphate from [^32P]ATP or [^33P]ATP into a protein substrate. Unless noted otherwise, assays were performed in 96-well plates in a total volume of 50 μL, in the presence of 10 mM HEPES (N-[2-hydroxyethyl]piperazine-N′-[2-ethanesulfonic acid]) (pH 7.4), 10 mM MgCl2, 25 μM adenosine triphosphate (ATP), 1 mg/mL ovalbumin, 5 μg/mL leupeptin, 1 mM dithiothreitol, 10 mM β-glycerophosphate, 0.1 mM sodium vanadate, 1 mM sodium fluoride, 2.5 mM ethylene glycol-bis(β-aminoethyl ether)-N,N,N′N′-tetraacetic acid (EGTA), 2% (v/v) dimethylsulfoxide, and 0.03-0.4 μCi [^32/33P]ATP per reaction. Reactions were initiated with enzyme, incubated at 30° C., and terminated after 20 minutes by the addition of ethylenediaminetetraacetic acid (EDTA) to 250 mM. The phosphorylated substrate was then captured on a nitrocellulose or phosphocellulose membrane using a 96-well filtration manifold, and unincorporated radioactivity was removed by repeated washing with 0.85% phosphoric acid. Radioactivity was quantified by exposing the dried membranes to a phosphorimager.
Inhibition was measured relative to control wells that contained all reaction components including 2% (v/v) DMSO but no compound, after subtraction of background radioactivity measured in the absence of enzyme. Apparent Ki values of discrete compounds were measured by assaying enzyme activity in the presence of different inhibitor compound concentrations and subtracting the background radioactivity measured in the absence of enzyme. The kinetic parameters (kcat, Km for ATP) were measured for each enzyme under the usual assay conditions by determining the dependence of initial rates on ATP concentration. Inhibition data were fit to an equation for competitive inhibition using Kaleidagraph (Synergy Software), or were fit to an equation for competitive tight-binding inhibition using the software KineTic (BioKin, Ltd.).
CDK2 was purified using published methodology (Rosenblatt et al., J. Mol. Biol., 230, 1317-1319 (1993)) from insect cells that had been infected with a baculovirus expression vector. Cyclin A was purified from E. coli cells expressing full-length recombinant cyclin A, and a truncated cyclin A construct was generated by limited proteolysis and purified as described previously (Jeffrey et al., Nature, 376, 313-320 (1995)). A complex of CDK2 and proteolyzed cyclin A was prepared and purified by gel filtration. The substrate for this assay was the same Rb substrate fragment used for the CDK4 assays, and the methodology of the CDK2/delta cyclin A and the CDK4/delta cyclin D3 assays was essentially the same, except that CDK2 was present at 10 nM or 19 nM. The duration of the assay was 60 or 75 minutes, during which the time-dependence of product formation was linear and initial rate conditions were met.

[2] = test system: HCT-116 cells; experiment: Inhibition of cell growth (MTT tetrazolium salt assay); assay type: cell-based; settings: Homo sapiens; for IC50: read-out: HCT116 IC50; for IC90: read-out: HCT116 IC90
Protocol: Inhibition of cell growth was measured using the tetrazolium salt assay, which is based on the ability of viable cells to reduce 3-(4,5-dimethylthiazol-2-yl)-2,5-[2H]-diphenyltetrazolium bromide (MTT) to formazan (Mosmann, J. Immunol. Meth., 65, 55-63 (1983)). The water-insoluble purple formazan product was then detected spectrophotometrically. HCT-116 cells were grown in 96-well plates. Cells were plated in the appropriate medium at a volume of 135 μl/well in either McCoy's 5A Medium. Plates were incubated for four hours before addition of inhibitor compounds. Different concentrations of inhibitor compounds were added in 0.5% (v/v) dimethylsulfoxide (15 μL/well), and cells were incubated at 37° C. (5% CO2) for four to six days (depending on cell type). At the end of the incubation, MTT was added to a final concentration of 0.2 mg/mL, and cells were incubated for 4 hours more at 37° C. After centrifugation of the plates and removal of medium, the absorbance of the formazan (solubilized in dimethylsulfoxide) was measured at 540 nm. […] All results were compared to control cells treated only with 0.5% (v/v) dimethylsulfoxide.

[3] = molecular target: T2, CDK4/cyclin D3 (Homo sapiens, UniProt P11802); experiment: Inhibition of CDK4/Cyclin D retinoblastoma kinase activity; assay type: biochemical; settings: for % Inhib CDK4/D @ 0.1 μM / inhibition at 0.1 µM: test compound at 0.1 μM; for % Inhib CDK4/D @ 1 μM / inhibition at 1 µM: test compound at 1 μM (head line shifted: 'mM' printed beside 'Structure'); for % Inhib CDK4/D @ 0.03 / inhibition at 0.03 µM: test compound at 0.03 (unit cell empty, head line shifted; μM); for inhibition at 0.1 µM: read-out: % Inhib CDK4/D @ 0.1 μM; for inhibition at 1 µM: read-out: % Inhib CDK4/D @ 1 μM; for inhibition at 0.03 µM: read-out: % Inhib CDK4/D @ 0.03; for Ki: apparent Ki, Rb fragment substrate
T2 construct: made in house; host or cells: insect cells (baculovirus co-infection)
Summary of the method: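 Human CDK4 with truncated cyclin D3 (1-264) from baculovirus-infected insect cells, 5 nM, phosphorylating His-tagged Rb fragment (386-928) with 25 μM [32P/33P]ATP in pH 7.4 HEPES/MgCl2, 2% DMSO, 30° C., 20 min (60 min for tight binders). Filter capture, phosphorimager; apparent Ki from competitive or tight-binding competitive fits.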

T2 sequence (P11802 whole entry, the tested form may be a part): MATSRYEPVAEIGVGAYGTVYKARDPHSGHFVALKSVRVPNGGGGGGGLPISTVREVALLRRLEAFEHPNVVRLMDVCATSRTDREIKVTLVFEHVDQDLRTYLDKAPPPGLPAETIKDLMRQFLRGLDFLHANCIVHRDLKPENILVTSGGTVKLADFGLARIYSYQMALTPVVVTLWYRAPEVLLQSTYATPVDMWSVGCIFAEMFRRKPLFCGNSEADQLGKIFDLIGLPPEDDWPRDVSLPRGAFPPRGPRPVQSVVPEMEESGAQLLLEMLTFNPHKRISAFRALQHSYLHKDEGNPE
T2 sequence (P30281 1-264 partner limits assumed): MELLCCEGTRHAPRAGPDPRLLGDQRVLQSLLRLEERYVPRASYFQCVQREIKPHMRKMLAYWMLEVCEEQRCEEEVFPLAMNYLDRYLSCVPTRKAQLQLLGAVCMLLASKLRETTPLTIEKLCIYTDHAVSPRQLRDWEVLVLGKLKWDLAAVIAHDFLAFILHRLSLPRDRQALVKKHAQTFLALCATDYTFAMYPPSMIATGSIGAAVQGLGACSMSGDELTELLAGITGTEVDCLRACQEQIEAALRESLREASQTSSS

SMILES | % Inhib CDK4/D @ 0.1 μM [3] [%] | % Inhib CDK4/D @ 1 μM [3] [%] | % Inhib CDK4/D @ 0.03 [3] [%] | other results
CS(=O)(=O)c1cccc(Nc2nc(N)c(C(=O)c3c(Cl)cccc3Cl)s2)c1 [AA(1), 4-Amino-5-(2,6-dichloro-benzoyl)-2-(3-methanesulfonyl-phenylamino)-thiazole] |  |  |  | Ki [1]: 430 nM
Nc1nc(Nc2ccc(S(=O)(=O)c3ccncc3)cc2)sc1C(=O)c1c(Cl)cccc1Cl [AA(3), 4-Amino-5-(2,6-dichlorobenzoyl)-2-[4-(pyridine-4-sulfonyl)-phenylamino]-thiazole] |  |  |  | Ki [1]: 190 nM
CNS(=O)(=O)c1ccc(Nc2nc(N)c(C(=O)c3c(F)cccc3F)s2)cc1 [C(108)*, reference compound] |  |  |  | IC50 [2]: 400 nM; IC90 [2]: 1400 nM
CN(C)S(=O)(=O)c1ccc(Nc2nc(N)c(C(=O)c3c(F)cccc3F)s2)cc1 [C(109)*, reference compound] |  |  |  | IC50 [2]: 1600 nM; IC90 [2]: 3000 nM
Nc1nc(Nc2ccc(S(N)(=O)=O)cc2)sc1C(=O)c1c(F)cc(F)cc1F [C(115)*, reference compound] |  |  |  | IC50 [2]: 980 nM; IC90 [2]: 2100 nM
CN1CCCC1CCS(=O)(=O)c1ccc(Nc2nc(N)c(C(=O)c3c(Cl)cccc3Cl)s2)cc1 (centres unmarked) [DD(219)] | 22 | 19.5 | 3.3 | 
CN1CCCC(CS(=O)(=O)c2ccc(Nc3nc(N)c(C(=O)c4c(Cl)cccc4Cl)s3)cc2)C1 (centres unmarked) [DD(227)] | 16 | 15.2 | −12 | 
CC(C)CCOC(=O)CS(=O)(=O)c1ccc(N(C)c2nc(N)c(C(=O)c3c(Cl)cccc3Cl)s2)cc1 [DD(231)] |  |  |  | inhibition at 0.1 µM [3]: 27%; inhibition at 1 µM [3]: 33.3%; inhibition at 0.03 µM [3]: -1.8%
CN(C)CCS(=O)(=O)c1ccc(Nc2nc(N)c(C(=O)c3c(Cl)cccc3Cl)s2)cc1 [DD(232)] |  |  |  | inhibition at 0.1 µM [3]: 26%; inhibition at 1 µM [3]: 17.6%; inhibition at 0.03 µM [3]: 3.7%
CCOCCS(=O)(=O)c1ccc(Nc2nc(N)c(C(=O)c3c(Cl)cccc3Cl)s2)cc1 [DD(233)] |  |  |  | inhibition at 0.1 µM [3]: 11%; inhibition at 1 µM [3]: -12%; inhibition at 0.03 µM [3]: 8.4%
CN(c1ccc(S(=O)(=O)CC(O)CO)cc1)c1nc(N)c(C(=O)c2c(Cl)cccc2Cl)s1 (centres unmarked) [DD(234)] |  |  |  | inhibition at 0.1 µM [3]: 35%; inhibition at 1 µM [3]: 26.1%; inhibition at 0.03 µM [3]: 9.6%
Nc1nc(Nc2ccc(S(=O)(=O)Cc3ccncc3)cc2)sc1C(=O)c1c(Cl)cccc1Cl [DD(235)] |  |  |  | inhibition at 0.1 µM [3]: 27%; inhibition at 1 µM [3]: 6.9%; inhibition at 0.03 µM [3]: 7.7%
CCC(CC)CS(=O)(=O)c1ccc(Nc2nc(N)c(C(=O)c3c(Cl)cccc3Cl)s2)cc1 [DD(236)] |  |  |  | inhibition at 0.1 µM [3]: 30%; inhibition at 1 µM [3]: 1.7%; inhibition at 0.03 µM [3]: -0.4%
CC(C)OC(=O)CCS(=O)(=O)c1ccc(N(C)c2nc(N)c(C(=O)c3c(Cl)cccc3Cl)s2)cc1 [DD(238)] |  |  |  | inhibition at 0.1 µM [3]: 22%; inhibition at 1 µM [3]: 21.5%; inhibition at 0.03 µM [3]: -19%
Nc1nc(Nc2ccc(S(=O)(=O)CCN3CCOCC3)cc2)sc1C(=O)c1c(Cl)cccc1Cl [DD(239)] | 27 | 8 | 12 | 
Nc1nc(Nc2ccc(S(=O)(=O)NCc3ccco3)cc2)sc1C(=O)c1c(F)cccc1F [Example A(22), 4-[4-Amino-5-(2,6-difluoro-benzoyl)-thiazol-2-ylamino]-N-furan-2-ylmethyl-benzenesulfonamide] |  |  |  | Ki [3]: 22 nM; IC50 [2]: 240 nM; IC90 [2]: 620 nM
CSc1cccc(Nc2nc(N)c(C(=O)c3c(Cl)cccc3Cl)s2)c1 [R(3), 4-Amino-5-(2,6-dichlorobenzoyl)-2-(3-methylthio-phenylamino)-thiazole] |  |  |  | Ki [3]: 74 nM
Nc1nc(Nc2ccc(Sc3ccncc3)cc2)sc1C(=O)c1c(Cl)cccc1Cl [W(1), 4-Amino-5-(2,6-dichloro-benzoyl)-2-[4-(pyridin-4-ylthio)-phenylamino]-thiazole] |  |  |  | Ki [3]: 89 nM
Nc1nc(Nc2ccc(S)cc2)sc1C(=O)c1c(Cl)cccc1Cl [X(1), 4-Amino-5-(2,6-dichloro-benzoyl)-2-(4-mercapto-phenylamino)-thiazole] |  |  |  | Ki [1]: 520 nM

Now from value to molecule, other results behind:

% Inhib CDK4/D @ 0.1 μM [3] [%] | % Inhib CDK4/D @ 1 μM [3] [%] | % Inhib CDK4/D @ 0.03 [3] [%] | SMILES | other results
33 | 23.4 | −12 | Nc1nc(Nc2ccc(S(=O)(=O)CC3CCCO3)cc2)sc1C(=O)c1c(Cl)cccc1Cl (centres unmarked) [DD(218)] | 
30 | 26.3 | −19 | CC1(CS(=O)(=O)c2ccc(Nc3nc(N)c(C(=O)c4c(Cl)cccc4Cl)s3)cc2)CO1 (centres unmarked) [DD(220)] | 
21 | 17.6 | −14 | NC(=O)CS(=O)(=O)c1ccc(Nc2nc(N)c(C(=O)c3c(Cl)cccc3Cl)s2)cc1 [DD(221)] | 
−11 | −11 | −9 | CCOC(=O)CCS(=O)(=O)c1ccc(Nc2nc(N)c(C(=O)c3c(Cl)cccc3Cl)s2)cc1 [DD(222)] | 
35 | 11.7 | −11 | CC(C)OC(=O)CS(=O)(=O)c1ccc(Nc2nc(N)c(C(=O)c3c(Cl)cccc3Cl)s2)cc1 [DD(223)] | 
12 | 9.8 | −2.6 | CC(C)=CCS(=O)(=O)c1ccc(Nc2nc(N)c(C(=O)c3c(Cl)cccc3Cl)s2)cc1 [DD(224)] | 
17 | 0.6 | −5 | CCCS(=O)(=O)c1ccc(Nc2nc(N)c(C(=O)c3c(Cl)cccc3Cl)s2)cc1 [DD(225)] | 
18 | −3.9 | −6.3 | COC(=O)CS(=O)(=O)c1ccc(Nc2nc(N)c(C(=O)c3c(Cl)cccc3Cl)s2)cc1 [DD(226)] | 
29 | 43 | 1 | NC(=O)CCS(=O)(=O)c1ccc(Nc2nc(N)c(C(=O)c3c(Cl)cccc3Cl)s2)cc1 [DD(228)] | 
23 | 3.5 | −13 | Nc1nc(Nc2ccc(S(=O)(=O)CCO)cc2)sc1C(=O)c1c(Cl)cccc1Cl [DD(229)] | 
20 | −1.6 | −17 | CC(C)CCCS(=O)(=O)c1ccc(Nc2nc(N)c(C(=O)c3c(Cl)cccc3Cl)s2)cc1 [DD(230)] | 
22 | 7.3 | −1.7 | CC(=O)OCCS(=O)(=O)c1ccc(Nc2nc(N)c(C(=O)c3c(Cl)cccc3Cl)s2)cc1 [DD(237)] | 
11 | 8.7 | 6.8 | CC(C)(CO)CS(=O)(=O)c1ccc(Nc2nc(N)c(C(=O)c3c(Cl)cccc3Cl)s2)cc1 [DD(240)] | 
